Test results reported in ChEMBL document CHEMBL4422609, “Overview of the Development of Glutaminase Inhibitors: Achievements and Future Directions” (J Med Chem, 2019).
One block for each compound: values may come before it.

Key:
JIMT-1 [1] = test: Antitumor activity against human JIMT1 cells xenografted in mouse assessed as tumor growth inhibition at 10 mg/kg, po administered every other day for 5 doses relative to control; assay type: functional; settings: JIMT-1, po, read-out: TGI
[2] = Inhibition of GAC (unknown origin) by fluorescence labeling-based assay; set-up: species or system Homo sapiens
RPMI-8226 [3] = test: Antitumor activity against human RPMI8226 cells xenografted in mouse assessed as tumor growth inhibition at 1 mg/kg, po administered QD relative to control; assay type: functional; settings: RPMI-8226, po, read-out: TGI
[4] = Inhibition of GAC (unknown origin); set-up: species or system Homo sapiens
[5] = Inhibition of KGA (unknown origin) using glutamine as substrate preincubated for 20 mins followed by substrate addition and measured after 2 hrs; set-up: species or system Homo sapiens
NCI-H1650 [6] = test: Antitumor activity against human NCI-H1650 cells harboring EGFR mutant xenografted in mouse assessed as tumor growth inhibition relative to control; assay type: functional
NCI-H2122 [7] = test: Antitumor activity against human NCI-H2122 cells harboring KRAS mutant xenografted in mouse assessed as tumor growth inhibition relative to control; assay type: functional
RPMI-8226 [8] = test: Antitumor activity against human RPMI8226 cells xenografted in mouse assessed as tumor growth inhibition at 200 mg/kg, po administered BID co-treated with pomalidomide relative to control; assay type: functional; settings: RPMI-8226, po, read-out: TGI
[9] = Antiproliferative activity against human MDA-MB-231met2 cells; assay type: functional, cell-based
NCI-H1650 [10] = test: Antitumor activity against human NCI-H1650 cells harboring EGFR mutant xenografted in mouse assessed as tumor growth inhibition co-treated with erlotinib relative to control; assay type: functional
JIMT-1 [11] = test: Antitumor activity against human JIMT1 cells xenografted in mouse assessed as tumor growth inhibition at 200 mg/kg, po administered BID relative to control; assay type: functional; settings: JIMT-1, po, read-out: TGI
[12] = Antitumor activity against human CTG-0052 cells xenografted in mouse assessed as tumor growth inhibition at 200 mg/kg, po administered BID relative to control; assay type: functional; settings: read-out: TGI
RPMI-8226 [13] = test: Antitumor activity against human RPMI8226 cells xenografted in mouse assessed as tumor growth inhibition at 200 mg/kg, po administered BID relative to control; assay type: functional; settings: RPMI-8226, po, read-out: TGI
JIMT-1 [14] = test: Antitumor activity against human JIMT1 cells xenografted in mouse assessed as tumor growth inhibition at 200 mg/kg, po administered BID co-treated with paclitaxel relative to control; assay type: functional; settings: JIMT-1, po, read-out: TGI
NCI-H2122 [15] = test: Antitumor activity against human NCI-H2122 cells harboring KRAS mutant xenografted in mouse assessed as tumor growth inhibition co-treated with selumetinib relative to control; assay type: functional
[16] = Inhibition of KGA (unknown origin); set-up: species or system Homo sapiens

SMILES: CC(=O)O[C@H]1C(=O)[C@@]2(C)[C@H]([C@H](OC(=O)c3ccccc3)[C@]3(O)C[C@H](OC(=O)[C@H](O)[C@@H](NC(=O)c4ccccc4)c4ccccc4)C(C)=C1C3(C)C)[C@]1(OC(C)=O)CO[C@@H]1C[C@@H]2O [PACLITAXEL]
inhibition in vivo at 10 mg/kg (JIMT-1 [1]): 73%

SMILES: Nc1cccc2c1C(=O)N(C1CCC(=O)NC1=O)C2=O (centres undefined) [POMALIDOMIDE]
inhibition in vivo at 1 mg/kg (RPMI-8226 [3]): 46%

SMILES: O=C(Cc1ccccc1)Nc1nnc([C@@H]2CCC[C@@H](c3nnc(NC(=O)Cc4ccccc4)s3)C2)s1 (racemic)
IC50 [5]: 100 nM

SMILES: C#Cc1cccc(Nc2ncnc3cc(OCCOC)c(OCCOC)cc23)c1 [ERLOTINIB]
TGI (NCI-H1650 [6]): 66%

SMILES: Cn1cnc2c(F)c(Nc3ccc(Br)cc3Cl)c(C(=O)NOCCO)cc21 [SELUMETINIB]
TGI (NCI-H2122 [7]): 49%

SMILES: O=C(Cc1cccc(OC(F)(F)F)c1)Nc1ccc(CCCCc2nnc(NC(=O)Cc3ccccn3)s2)nn1
TGI (NCI-H2122 [7]): 46%
inhibition in vivo at 200 mg/kg (RPMI-8226 [8]): 97%
IC50 [9]: 2 to 300 nM
TGI (NCI-H1650 [10]): 89%
TGI (NCI-H1650 [6]): 26%
inhibition in vivo at 200 mg/kg (JIMT-1 [11]): 54%
IC50 [4]: 20 nM
inhibition in vivo at 200 mg/kg [12]: 61%
inhibition in vivo at 200 mg/kg (RPMI-8226 [13]): 64%
inhibition in vivo at 200 mg/kg (JIMT-1 [14]): 100%
TGI (NCI-H2122 [15]): 78%

SMILES: CC(C)c1ccc(C2Nc3ccc4ccccc4c3C3=C2C(=O)CC(C)(C)C3)cc1 (centres undefined)
IC50 [4]: 20000 nM

SMILES: O=C(Cc1ccccc1)Nc1nnc(CCSCCc2nnc(NC(=O)Cc3ccccc3)s2)s1
IC50 [5]: 160 nM
IC50 [16]: 3000 nM

Second part, the compound after the results:

IC50 [2]: 4500 nM
SMILES: CN(C)c1ccc(C2Nc3ccc(C(C)(C)C)cc3C3=C2C(=O)CC(C)(C)C3)cc1Br (centres undefined)

IC50 [4]: 50000 nM
SMILES: CN(C)c1ccc(C2Nc3ccc4ccccc4c3C3=C2C(=O)CC(C)(C)C3)cc1 (centres undefined)

IC50 [2]: 10000 nM
SMILES: CC1(C)CC(=O)C2=C(C1)c1c(ccc3ccccc13)NC2c1ccc(C(C)(C)C)cc1 (centres undefined)

IC50 [2]: 1500 nM
SMILES: CN(C)c1ccc(C2Nc3ccc4cc5ccccc5cc4c3C3=C2C(=O)CC(C)(C)C3)cc1Br (centres undefined)

IC50 [4]: 9300 nM
SMILES: CN(C)c1ccc(C2Nc3ccc4ccccc4c3C3=C2C(=O)CC(C)(C)C3)cc1Br (centres undefined)
